For the assay, the system named is HCV pseudoparticles (genotype 1a HCV E1 and E2 envelope, H77C isolate). Kind of assay: HCV pseudoparticle infection assay (luciferase, Huh7 cells). The class given is cell-based, HCV genotype 1a (H77C isolate). As to conditions: HCV pseudoparticle entry into Huh7 cells, luciferase 2 days after infection.
[1] abbreviates: Hepatitis C virus, Huh-7, 48 h, average of duplicates.
The mark [2] stands for this setting: Hepatitis C virus, Huh-7, 48 h, class symbol.

For orientation: EC50 means the midpoint of the concentration-response curve. Low values mean a more potent agent, high ones a less potent agent. On to `CC1(C)CCNC(=O)c2ccc(cc2)Nc2cc(nc(OCC(F)(F)F)n2)NCc2ccc(cc2)OCCCN1` [Compound 1001], for which the EC50 is, setting by setting: (average of duplicates) 907 nM; (class symbol) 100 to 1000 nM.

For the compound `O=C1NCCCOCCCCOCCCNc2cc(nc(OCC(F)(F)F)n2)Nc2ccc1cn2` [Compound 1002], the EC50 by setting is: under setting [1], 215 nM; under setting [2], 100 to 1000 nM.

Take `CC1(C)CNCCCOc2ccc(cc2)CNc2cc(nc(OCC(F)(F)F)n2)Nc2ccc(cn2)C(=O)NC1` [Compound 1003]: a half-maximal response under setting [1] (EC50) required 0.21 nM and the EC50 under setting [2] was < 100 nM.

Regarding `C=C1CNCC(C)(C)CNC(=O)c2ccc(nc2)Nc2cc(nc(OCC(F)(F)F)n2)NCc2ccc(cc2)OC1` [Compound 1004], the EC50 runs as follows: under setting [1], 0.49 nM; under setting [2], < 100 nM.

On to `CC1CNCC(C)(C)CNC(=O)c2ccc(nc2)Nc2cc(nc(OCC(F)(F)F)n2)NCc2ccc(cc2)OC1` (centres unmarked) [Compound 1005], for which the EC50 by setting is: under setting [1], 0.38 nM; under setting [2], < 100 nM.

`C[C@H]1CNCC(C)(C)CNC(=O)c2ccc(nc2)Nc2cc(nc(OCC(F)(F)F)n2)NCc2ccc(cc2)OC1` [Compound 1006]: the EC50 is 0.45 nM under setting [1] and < 100 nM under setting [2].

As for `C[C@@H]1CNCC(C)(C)CNC(=O)c2ccc(nc2)Nc2cc(nc(OCC(F)(F)F)n2)NCc2ccc(cc2)OC1` [Compound 1007], the EC50 is, setting by setting: under setting [1], 0.19 nM; under setting [2], < 100 nM.

Regarding `CC1(C)CNCCCOc2ccc(cc2)CNc2cc(nc(OCC(F)(F)F)n2)Nc2ccc(cc2)C(=O)NC1` [Example 2001], the EC50 by setting is: under setting [1], 1.34 nM; under setting [2], < 100 nM.

`CC1(C)CNCCCOc2ccc(c(F)c2)CNc2cc(nc(OCC(F)(F)F)n2)Nc2ccc(cc2)C(=O)NC1` [Example 2002]: the EC50 under setting [1] was 0.81 nM and the EC50 under setting [2] was < 100 nM.

In the case of `CC1(C)CNCCCOc2ccc(cc2F)CNc2cc(nc(OCC(F)(F)F)n2)Nc2ccc(cc2)C(=O)NC1` [Example 2003], the EC50 runs as follows: under setting [1], 0.76 nM; under setting [2], < 100 nM.

In the case of `O=C1NCC2(CC2)CNCCCOc2ccc(cc2)CNc2cc(nc(OCC(F)(F)F)n2)Nc2ccc1cc2` [Example 2004], a half-maximal effect under setting [1] (EC50) was put at 396 nM and the EC50 under setting [2] lay within 100 to 1000 nM.

In the case of `C[C@H]1CNCCCOc2ccc(cc2)CNc2cc(nc(OCC(F)(F)F)n2)Nc2ccc(cc2)C(=O)NC1` [Example 2005], a half-maximal effect under setting [1] (EC50) was put at 184 nM and the half-maximal effective concentration (EC50) under setting [2] is 100 to 1000 nM.

As for `CC1(C)CCNC(=O)c2ccc(cc2)Nc2cc(nc(OCC(F)(F)F)n2)NCc2ccc(cc2)OCCCN1` [Example 2006], the EC50 by setting is: (average of duplicates) 326 nM; under setting [2], 100 to 1000 nM.
